Converted amounts (≈) assume the structure as drawn.
system: P388; assay: In vivo antitumor activity against mouse P388 cells; format: functional

Row | SMILES | ED50
1 | C[C@@H]1C(=O)CC[C@@]2(C)[C@H]1CC[C@H]1C[C@@H]3C[C@@]12CC[C@]3(O)CO | 12 µg/mL (≈ 39.2 µM)
2 | C[C@@]1(CO)[C@@H](O)CC[C@@]2(C)[C@H]1CC[C@H]1C[C@@H]3C[C@@]12CC[C@]3(O)CO | 13 µg/mL (≈ 38.4 µM)
3 | C[C@]12CCC(=O)[C@@](C)(CO)[C@@H]1CC[C@H]1C[C@@H]3C[C@@]12CC[C@]3(O)CO | 2.4 µg/mL (≈ 7.13 µM)
4 | C[C@@]1(CO)[C@H](O)CC[C@@]2(C)[C@H]1[C@H](O)C[C@H]1C[C@@H]3C[C@@]12CC[C@]3(O)CO | 18 µg/mL (≈ 50.8 µM)
5 | C[C@]12CCC(=O)[C@@](C)(CO)[C@@H]1[C@H](O)C[C@H]1C[C@@H]3C[C@@]12CC[C@]3(O)CO | 100 µg/mL (≈ 284 µM)
6 | C[C@@]1(CO)[C@H](O)CC[C@@]2(C)[C@H]1CC[C@H]1C[C@@H]3C[C@@]12CC[C@]3(O)CO [APHIDICOLIN] | 0.13 µg/mL (≈ 0.384 µM)
7 | C[C@@]1(C(=O)O)[C@H](O)CC[C@@]2(C)[C@H]1CC[C@H]1C[C@@H]3C[C@@]12CC[C@]3(O)CO | 2.2 µg/mL (≈ 6.24 µM)
